# Reference: US9012625B2, “Method for the synthesis of a trisaccharide” (Glycom A/S, priority 2009, dated 2015)
# Experiment: solubility in hot methanol
# Format: physicochemical
# Conditions: 3 volumes
smiles,measurement,value
"CC1O[C@@H](OC2C(O)[C@@H](O)C(CO)O[C@H]2O[C@@H]2C(CO)OC(O)C(O)C2O)C(OCc2ccccc2)C(OCc2ccccc2)[C@@H]1OCc1ccccc1 (stereo partly drawn) [anhydrous derivative, O-(2,3,4-tri-O-benzyl-α-L-fucopyranosyl)-(1→2)-O-β-D-galactopyranosyl-(1→4)-D-glucose]",solubility in hot methanol,excellent solubility
